Reference: US20240307335A1, “IRG Blockade to Armor CAR T Cells Against Myeloid Dysfunction” (ROSWELL PARK CANCER INSTITUTE CORPORATION, priority 2023, published 2024)

How the values were obtained:
[1] = system: CAR T cells cocultured with Eμ-myc cells with or without macrophages (imMac); experiment: Expansion assay of mCherry+ CAR T cells (IncuCyte live cell analysis) in cocultures; format: cell-based, mouse; details: for CAR T cell expansion: CAR T cells cocultured with Eμ-myc cells without macrophages, agent present; for CAR T cell expansion / CAR T cell expansion in cocultures with imMac: over 48 h
Procedure: Macrophage development and polarization: BMDMs were generated from bone marrow cells harvested from femurs and tibias of WT or iNOS^−/− mice. […] On day 3, 10 ml of fresh medium with 20 ng/ml M-CSF was added. On day 5, the culture medium was entirely discarded and replaced by 15 ml of fresh medium with 20 ng/ml M-CSF. On day 6, BMDMs were activated for 24 h with 20 ng/ml of IL-4 and IL-10 (Peprotech) to develop imMac or cultured in media only to use as unMac. M-CSF (20 ng/ml) was added during activation with cytokines. On day 7, adherent cells were harvested by gentle scraping and used for in vitro experiments.
Expansion assay: The expansion of mCherry^+ CAR T cells was determined by an IncuCyte S3 live cell analysis system (Essen Bioscience). 2×10^4 Eμ-myc cells and 2×10^4 CAR T cells were cocultured in the absence or presence of 0.5×10^4 macrophages (CAR T:Eμ-myc cell:Macrophage=1:1:0.25, unless otherwise indicated in the figures) in a 96-well black-walled clear bottom plate in 120 μl of media. Cell images were captured at 4× magnification. The expansion index was calculated by dividing the total integrated red intensity (RCU×m^2/mm^2) at each time point by the first time point.
Immunoregulatory actions of macrophages on CAR T cells: To explore how M2-like macrophages may impact the cellular function of CAR T cells, the study employed a syngeneic coculture system (FIG. 3A). […] The BMDMs were either unpolarized (unMac) or induced to differentiate into M2-like macrophages by culturing with type 2 cytokines IL-4 and IL-10. […] The study next explored the impact of imMac on CAR T cell effector function. To exclude the direct contribution of macrophage effector activities in these functional assays, CAR T cells, Eμ-myc cells, and macrophages were first cocultured for 48 hours (FIG. 3G). Next, CAR T cells isolated from the cocultures were evaluated for their effector function against fresh Eμ-myc cells.

[2] = system: Eμ-myc cells; experiment: Luciferase-based killing assay with CAR T cells isolated from initial coculture; format: cell-based, mouse; details: lysis at 24 h; for lysis of Eμ-myc cells by CAR T cells (ability to kill tumor cells): CAR T cells isolated after 48 h initial coculture with Eμ-myc cells with NCX-4016 (100 μM) or PNT (50 μM), no macrophages
Procedure: (§1) CAR T cell isolation from initial coculture for subsequent downstream assays: 1×10^6 CAR T cells and 1×10^6 Eμ-myc-GFP-FFL cells were cocultured in the absence or presence of 0.25×10^6 macrophages in a 6-well plate in 6 ml of media for 48 h. After initial coculture, cells were harvested, and T cells were isolated using Mouse T Cell Isolation Kit ([…] Technologies). […] Percentage of CAR-expressing T cells was determined with flow cytometry and were subsequently used for downstream assays.
Luciferase-based killing assay: 2×10^4 Eμ-ALL-GFP-FFL cells were cocultured with CAR T cells at different effector-to-target ratios in a 96-well white-walled plate in 100 μl of media. Following incubation, 100 μl luciferase substrate reagent (ONE-Glo Luciferase assay system, Promega) was added to each well. Target cells alone were plated at the same cell density to determine maximum luciferase signals. Emitted luminescence was detected in the microplate reader (GloMax, Promega). Percent lysis was determined as (1−sample signal/maximum signal)×100.

[3] = system: CAR T cells cocultured with fresh Eμ-myc cells; experiment: Cytokine secretion assay (Ella automated ELISA) with CAR T cells isolated from initial coculture; format: cell-based, mouse; details: for secretion of effector cytokine IFN-γ by CAR T cells / secretion of effector cytokine TNF-α by CAR T cells: CAR T cells isolated after 48 h coculture with Eμ-myc cells with NCX-4016 (100 PM) or PNT (50 μM), supernatants at 24 h
Procedure: as §1
Cytokine secretion assay: 2×10^4 Eμ-myc cells were cocultured with 2×10^4 CAR T cells in a 96-well plate in a total volume of 100 μl of media. Supernatants were collected and analyzed for IFN-γ and TNF-α secretion using Ella automated immunoassay system (Proteinsimple Bio-techne) according to manufacturer's instructions.

[4] = system: iNOS; experiment: Griess assay of NO levels in coculture supernatants; format: cell-based, mouse; details: L-NIL 50 μM at 48 h, anti-IFN-γ 10 μg/mL at 44 h
Procedure: Griess assay: 2×10^4 Eμ-myc cells and 2×10^4 CAR T cells were cocultured in the presence or absence of 0.5×10^4 macrophages in a 96-well plate in 120 μl of media. Coculture supernatants were harvested, and nitric oxide levels were measured using Griess reagent system (Promega) according to manufacturer's instructions. Absorbance was read at 560 nm using microplate reader (GloMax, Promega), and NO2 concentrations were determined by standard curve. Standard curve was prepared with diluting 0.1M sodium nitrite standard (provided in the kit) with the culture media used for experiments.

[5] = system: CAR T cells; experiment: Seahorse assay (ECAR, OCR) on CAR T cells from cocultures; format: cell-based, mouse; details: L-NIL 50 μM; coculture 48 h
Procedure: (§2) CAR T cell isolation from initial coculture for subsequent downstream assays: 1×10^6 CAR T cells and 1×10^6 Eμ-myc-GFP-FFL cells were cocultured in the absence or presence of 0.25×10^6 macrophages in a 6-well plate in 6 ml of media for 48 h. After initial coculture, cells were harvested, and T cells were isolated using Mouse T Cell Isolation Kit (STEMCELL Technologies). T cell purity was 100% as tested by flow cytometry. Percentage of CAR-expressing T cells was determined with flow cytometry and were subsequently used for downstream assays.
Seahorse assay: ECAR and OCR were measured using a Seahorse Extracellular Flux Analyzer (Agilent Technologies). XF96 microplates were coated with CellTak a day before analyses. To assay glycolytic function, T cells were resuspended in glucose-free XF medium supplied with 2 mM L-glutamine and 1 mM sodium pyruvate and seeded at 2×10^5 cells in 180 μl per well. Following incubation in a CO2-free incubator for 60 min at 37° C. for pH stabilization, ECAR was measured in response to 10 mM glucose, 1 μM oligomycin, and 50 mM 2-deoxyglucose. […] Following incubation in a CO2-free incubator for 60 min at 37° C. for pH stabilization, OCR was measured in response to 1 μM oligomycin, 1 μM FCCP, and 0.5 μM rotenone and antimycin.

[6] = system: arginine metabolism by imMac; experiment: Global metabolomics (LC-MS) of coculture supernatants; format: cell-based, mouse; details: L-NIL (50 PM)
Procedure: Metabolomics and ^13C6-labeled glucose tracing analyses: For global metabolomics analysis of cell-cultured medium, the cell-free medium was obtained by performing rapid centrifugation (17,000×g, 10 sec, room temperature) to collect the supernatant. The metabolites present in 20 μl of the cell-cultured medium were then extracted using 80 μl of ice-cold MeOH. Following a 30 min incubation on ice and subsequent centrifugation (17,000×g, 20 min, 4° C.), the supernatant was subjected to LC-HRMS analysis.
LC-HRMS analysis was performed on a Vanquish UPLC coupled with a Q-Exactive HF mass spectrometer, employing the same conditions as the previously established methods 76. A ZIC-pHILIC LC column (4.6 mm inner diameter×150 mm length, […], MilliporeSigma, Burlington, MA) with a ZIC-pHILIC guard column (4.6 mm inner diameter×20 mm length, MilliporeSigma, Burlington, MA) was used for chromatographic separation at a column temperature of 30° C. The mobile phases included 10 mM (NH4)2CO3 and 0.05% NH40H in H2O for mobile phase A, and […]. The LC gradient conditions were as follows: 0 to 13 min: a decreasing of 80% to 20% of mobile phase B, 13 to 15 min: 20% of mobile phase B. The ionization was set to negative mode, with the MS scan range set to 60 to 1000 m/z. The mass resolution was 70,000, and the AGC target was 1×106. The sample loading volume was 5 μl. The unlabeled or ^13C-labeled metabolite peaks were extracted using EL-Maven with a metabolite standard-based in-house library. For global metabolomic profiling, peak areas of metabolites were normalized by the median value of the total for identified metabolite peak areas in each sample. For the ^13C-labeled metabolite peaks, the natural isotope peak area was corrected using IsoCor (Version 2.2).

[7] = system: CAR T cells; experiment: Global metabolomics on CAR T cells from cocultures; format: cell-based, mouse; details: L-NIL (50 PM); coculture 48 h
Procedure: as §2
Global metabolomic profiling and 13C6-labeled glucose tracing of CAR T cells, 1×10^6 T cells were resuspended in either RPMI-1640 medium (RPMI+10% heat-inactivated dialyzed FBS) or ^13C6-glucose substituted RPMI-1640 medium (glucose-free RPMI+10% heat-inactivated dialyzed FBS+11.1 mM ^13C6-glucose). After 4 h incubation, cells were collected, rapidly centrifuged (17,000×g, 10 sec, room temperature), and medium was removed. T cells were washed with 1 ml of ice-cold PBS, and metabolites were extracted with 300 μl of 80% methanol via incubation at −80° C. for 15 min. Samples were centrifuged (17,000×g, 20 min, 4° C.), and supernatants were transferred to an Eppendorf tube and dried in a vacuum evaporator overnight. The dried extracts were resuspended in 20 μl of aqueous 50% methanol, clarified by centrifugation (17,000×g, 20 min, room temperature), and analyzed by LC-HRMS.
LC-HRMS analysis was performed on a Vanquish UPLC coupled with a Q-Exactive HF mass spectrometer, employing the same conditions as the previously established methods 76. A ZIC-pHILIC LC column (4.6 mm inner diameter×150 mm length, […], MilliporeSigma, Burlington, MA) with a ZIC-pHILIC guard column (4.6 mm inner diameter×20 mm length, MilliporeSigma, Burlington, MA) was used for chromatographic separation at a column temperature of 30° C. […]

[8] = system: Eμ-myc B cell tumors; experiment: Survival of Eμ-myc tumor-bearing mice treated with CAR T cells and L-NIL; format: in vivo, mouse; details: combination of 1928z CAR T cells and L-NIL (i.p. once per day, 20 mg/kg) compared to 1928z CAR T cells alone; Eμ-myc tumors in peritoneal cavity
Procedure: Animal experiment: Six- to 10-week-old Rag1^+/+ mice of both sexes were intraperitoneally (i.p.) injected with 3×10^6 Eμ-myc-GFP-FFL cells to generate tumors localized in peritoneal cavity. Tumor engraftment was verified by bioluminescence imaging one day before CAR T cell transfer. Mice were randomized to different treatment groups without differences in pre-treatment tumor load. Seven days after tumor cell inoculation, mice were injected i.p. with 5×10^6 CAR T cells in 300 μl PBS. For survival experiments, L-NIL or PBS was administered i.p. once per day at 20 mg/kg body weight starting on the same day of tumor cell injection. […] Bioluminescence imaging was performed by IVIS Lumina III In Vivo Imaging System (PerkinElmer) with Living Image software (PerkinElmer).

[9] = CAR T cells and Eμ-myc cells with imMac, agent present (L-NIL 50 μM; anti-IFN-γ 10 μg/mL; c-PTIO)
[10] = CAR T cells isolated after 48 h coculture with imMac with agent (L-NIL 50 μM, supernatants at 36 h; anti-IFN-γ 10 μg/mL, at 24 h)

NC(=O)NCCC[C@H](N)C(=O)O [citrulline]
CAR T cell expansion [1]: did not impact the expansion of CAR T cells

CC(=O)Oc1ccccc1C(=O)Oc1cccc(CO[N+](=O)[O-])c1 [NCX-4016]
CAR T cell expansion [1]: inhibition of CAR T cell expansion
lysis of Eμ-myc cells by CAR T cells (ability to kill tumor cells) [2]: diminished ability of CAR T cells to kill tumor cells
secretion of effector cytokine IFN-γ by CAR T cells [3]: diminished
secretion of effector cytokine TNF-α by CAR T cells [3]: diminished

C=C(CC(=O)OCCCCCCCC)C(=O)O [4-OI, 4-octyl itaconate]
CAR T cell expansion [1]: impaired CAR T cell expansion
CAR T cell expansion ([1]; listed as 4OI): reduced CAR T cell expansion
CAR T cell expansion ([1]; listed as 401): reduced CAR T cell expansion

CC(=N)NCCCC[C@H](N)C(=O)O.Cl [L-NIL, N^6-(1-Iminoethyl)-lysine, hydrochloride]
production of NO in cocultures with imMac [4]: attenuated
glycolytic metabolic capacity (ECAR) of CAR T cells from cocultures with imMac [5]: preserved
oxidative metabolic capacity (OCR) of CAR T cells from cocultures with imMac [5]: preserved
CAR T cell expansion in cocultures with imMac [1, 9]: complete rescue of CAR T cell expansion
lysis of Eμ-myc cells by CAR T cells (capacity to kill tumor cells) ([2]; CAR T cells isolated after 48 h initial coculture with Eμ-myc cells and imMac with agent (L-NIL 50 μM; anti-IFN-γ 10 μg/mL)): preserved the capacity of CAR T cells to kill tumor cells
production of effector cytokine IFN-γ by CAR T cells [3, 10]: preserved
production of effector cytokine TNF-α by CAR T cells [3, 10]: preserved
production of citrulline in cocultures with imMac ([6]; coculture supernatants): attenuated
levels of arginine in coculture supernatants ([6]; cocultures with imMac): remained comparable
levels of ornithine in coculture supernatants ([6]; cocultures with imMac): remained comparable
depletion of dihydroxyacetone phosphate (DHAP) in CAR T cells cocultured with imMac [7]: reversal
depletion of fructose 1,6-bisphosphate (F1,6BP) in CAR T cells cocultured with imMac [7]: reversal
depletion of glyceraldehyde 3-phosphate (G3P) in CAR T cells cocultured with imMac [7]: reversal
survival of tumor-bearing mice [8]: significantly improved survival

CC1(C)N([O])C(c2ccc(C(=O)O)cc2)=[N+]([O-])C1(C)C [c-PTIO, carboxyl-PTIO]
CAR T cell expansion in cocultures with imMac [1, 9]: partially rescued the expansion of CAR T cells

N=C(NO)NCC[C@H](N)C(=O)O [nor-NOHA, N(omega)-hydroxy-nor-L-arginine]
CAR T cell expansion in cocultures with imMac ([1]; physiological arginine concentration (150 μM), nor-NOHA (50 PM)): failed to rescue CAR T cell expansion
CAR T cell expansion in cocultures with imMac ([1]; supraphysiological arginine concentration (1.15 mM) in culture media, nor-NOHA (50 PM)): did not restore CAR T cell expansion

O=NOO [PNT, peroxynitrite]
CAR T cell expansion [1]: inhibition of CAR T cell expansion
lysis of Eμ-myc cells by CAR T cells (ability to kill tumor cells) [2]: diminished ability of CAR T cells to kill tumor cells
secretion of effector cytokine IFN-γ by CAR T cells [3]: diminished
secretion of effector cytokine TNF-α by CAR T cells [3]: diminished

COC(=O)CCC(=O)C(=O)OC [DMKG]
rescue of CAR T cell expansion by supplementation ([1]; FIG. 15, iNOS in imMac disrupts TCA cycle progression in CAR T cells): failed to rescue CAR T cell expansion
